# Source: US20240245647A1, “ISOMEROHYDROLASE INHIBITOR FOR TREATMENT OF ATROPHIC FORM OF AGE-RELATED MACULAR DEGENERATION AND STARGARDT DISEASE” (The Trustees of Columbia University in the City of New York, priority 2021, published 2024)
# Like-named read-outs stand apart in the source and are kept apart here.
# Legend:
# RPE65 [1] = target: T1, RPE65 (Bos taurus, UniProt Q28175); assay: In vitro retinol isomerase (isomerohydrolase, IMH) assay with bovine RPE microsomes; type: biochemical
# T1 construct: Bovine RPE microsomes were prepared as described previously; from tissue; host or cells: bovine retinal pigment epithelium (RPE) microsomes
# Procedure: FIG. 2. Inhibition of the RPE65 isomerase activity by RPE65-61. Bovine RPE microsomes (20 μg) were incubated with 0.2 μM of all-trans-[3H]-retinol in the presence or absence of RPE65-61 for 1 h at 37° C. The generated retinoids were analyzed by HPLC coupled with flow scintillation analyzer. (FIG. 2A) HPLC elution profile without inhibitor; (FIG. 2B) with 375 nM of RPE65-61. Peak 1, retinyl esters; Peak 2, 11-cis-retinol; Peak 3 all-trans-retinol.
# All-trans [11,12-^3H]-retinol (1 mCi/ml, 45.5 Ci/mmol, Perkin Elmer, Boston, MA) in N,N-dimethyl formamide (DMF) was used as the substrate for the isomerohydrolase assay. Bovine RPE microsomes were prepared as described previously. For each reaction, 25 μg microsomal proteins from the bovine RPE were added into 200 μl of reaction buffer (10 mM BTP, pH 8.0, 100 mM NaCl) containing 0.2 μM of all-trans retinol, 1% BSA and 25 μM of cellular retinaldehyde-binding protein (CRALBP). For the inhibition of isomerase activity, RPE65-61 dissolved in the DMF was added to the reaction prior to addition of all-trans retinol. The reaction was stopped and retinoids extracted with 300 μl of cold methanol and 300 μl of hexane and centrifuged at 10,000×g for 5 min. The upper layer was collected and the generated retinoids were analyzed by normal phase HPLC as described (Moiseyev, G. et al. 2003). […] The isomerohydrolase activity was calculated from the area of the 11-cis retinol peak using Radiomatic 610TR software (Perkin Elmer, Boston, MA) with synthetic 11-cis [^3H]-retinol as a standard. […] The retinoid profile after completion of the reaction was analyzed by HPLC where the peaks were identified by co-elution with retinoid standards. The RPE65 isomehydrolase activity was calculated based on the 11-cis retinol peak area as described (Moiseyev, G. et al. 2005; Nikolaeva, O. et al. 2009). […] The inhibition constant for RPE65-61 was calculated from the following equation: Ki=[I]/([…]) where [I] is concentration of inhibitor, Vm is maximal velocity in the absence of the inhibitor, and Vmi is maximal velocity in the presence of the inhibitor.
# [2] = system: cGAS/STING signal pathway; assay: cGAS/STING pathway activation after LIRD (Western blot); type: in vivo, BALB/c mice; details: 2 mg/kg
# Procedure: FIG. 8. Elevated protein levels of cGAS-STING pathway in BALB/c mice. The CGAS, STING and phosphorylated NF-κB (pp65). (FIGS. 8A-8C) Retinas were harvested and cGAS and STING protein levels were measured by Western blot analysis with β-actin as loading control and densitometry quantification. (FIGS. 8D-8E) Levels of phosphorylated NF-κB (p-NF-κB) were determined by Western blotting. Total NF-κB (p65) was used as an internal control and densitometry quantification. Each lane represents an individual mouse. (FIGS. 8F-8G) Photoreceptor cell apoptosis was evaluated by TUNEL on the retinal sections at the dose of 2 mg/kg in BALB/c mice and correlating quantitative analysis. Student's t-test was used (n=5, mean±SEM, *P<0.05, **<0.01).
# To further evaluate the effect of RPE65-61 on retinal apoptosis, retinal sections from LIRD mice were used for Terminal deoxynucleotidyltransferase dUTP nick-end labeling (TUNEL) with the In Situ Cell Death Detection Kit (Millipore/sigma Cat #:11684795910). TUNEL-positive photoreceptor cells were quantified to evaluate the effects of RPE65-61 as described (Rajala, A. et al. 2018; Ma, H. et al. 2020).
# RPE65 [3] = target: T2, RPE65 (Mus musculus, UniProt Q91ZQ5); assay: Chromophore regeneration after photobleach, HPLC retinoid profile; type: in vivo, BALB/cJ mice
# T2 construct: from tissue; host or cells: eyes of living BALB/cJ mice
# T2 sequence (Q91ZQ5 1-533): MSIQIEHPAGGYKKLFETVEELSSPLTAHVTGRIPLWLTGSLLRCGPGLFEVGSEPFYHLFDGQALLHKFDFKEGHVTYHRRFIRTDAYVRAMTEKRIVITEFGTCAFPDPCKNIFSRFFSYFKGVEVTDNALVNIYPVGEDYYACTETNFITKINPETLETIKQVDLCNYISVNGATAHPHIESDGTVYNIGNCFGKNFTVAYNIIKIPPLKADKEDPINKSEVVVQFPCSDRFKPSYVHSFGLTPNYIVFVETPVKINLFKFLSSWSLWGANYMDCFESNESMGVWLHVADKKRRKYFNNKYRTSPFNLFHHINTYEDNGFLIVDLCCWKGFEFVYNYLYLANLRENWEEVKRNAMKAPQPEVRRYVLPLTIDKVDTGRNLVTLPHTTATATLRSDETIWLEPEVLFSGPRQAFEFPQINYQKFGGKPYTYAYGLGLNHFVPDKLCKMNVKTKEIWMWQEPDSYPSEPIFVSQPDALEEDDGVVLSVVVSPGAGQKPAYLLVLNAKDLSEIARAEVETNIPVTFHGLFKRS
# Procedure: FIG. 4. Systemic injection of inhibitor RPE65-61 delays chromophore regeneration in BALB/cJ mice. Dark-adapted mice were injected with varying amounts of RPE65-61, and subjected to light-adaptation under 5000 lx of fluorescent light for 30 min. The eyes were harvested for HPLC retinoid profiling after 30 min of dark-adaptation, to measure levels of (FIG. 4A) 11-cis-RAL, (FIG. 4B) all-trans-RAL, and (FIG. 4C) all-transretinyl ester. (FIG. 4D) schematic representation of experimental design for RPE65-61 in vivo. Student's t-test. *P<0.05, **<0.01 and ***<0.001. (Mean±SEM).
# Dark-adapted or light-exposed mice were sacrificed, and their eyes enucleated under dim red light. The whole eyes were homogenized with a glass grinder in lysis buffer [10 mM NH2OH, 50% ethanol, […] 2-(N-morpholino) ethanesulfonic acid, pH 6.5], incubated for 1 hr, and retinoids were extracted with hexane.
# The ability of RPE65-61 to inhibit RPE65 in vivo was also investigated by determining chromophore regeneration after bleaching with 5,000 lux fluorescent light for 30 min. (FIG. 4).
# T1 sequence (Q28175 whole entry): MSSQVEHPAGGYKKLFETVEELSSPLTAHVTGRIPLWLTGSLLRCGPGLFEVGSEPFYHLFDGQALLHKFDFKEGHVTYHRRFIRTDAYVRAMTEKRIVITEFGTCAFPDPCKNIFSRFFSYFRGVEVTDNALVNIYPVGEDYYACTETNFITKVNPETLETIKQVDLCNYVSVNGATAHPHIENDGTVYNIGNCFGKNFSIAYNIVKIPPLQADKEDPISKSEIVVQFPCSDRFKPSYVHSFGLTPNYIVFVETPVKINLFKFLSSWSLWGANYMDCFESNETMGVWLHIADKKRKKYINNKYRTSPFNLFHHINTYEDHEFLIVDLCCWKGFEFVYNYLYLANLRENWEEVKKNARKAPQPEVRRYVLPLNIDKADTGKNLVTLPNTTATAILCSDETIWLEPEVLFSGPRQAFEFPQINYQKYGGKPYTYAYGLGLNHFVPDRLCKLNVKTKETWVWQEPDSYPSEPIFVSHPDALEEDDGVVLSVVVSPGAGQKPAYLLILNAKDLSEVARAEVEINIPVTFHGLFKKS
smiles,measurement,setting,value
"N=S(=O)(CCN)c1cccc(OCC2CCCCC2)c1 (racemic) [RPE65-61, (±)-(2-aminoethyl) (3-(cyclohexylmethoxy)phenyl) (imino)-λ^6-sulfanone]","RPE65 inhibition, in words",RPE65 [1],effectively inhibit
same,IC50,"RPE65 [1]; bovine RPE microsomes, 0.2 μM all-trans-[3H]-retinol, read-out: apparent IC50, RPE65 isomerase activity",80 nM
same,IC50,RPE65 [1]; read-out: IC50 in the primary IMH / RPE65 inhibition assay,95 nM
same,activation of cGAS/STING signal pathway in RPE and photoreceptor cells,[2],protected RPE and photoreceptor cells from the activation of cGAS/STING signal pathway
same,chromophore regeneration after photobleach,"RPE65 [3]; 0.5, 1 or 2 mg/kg injected, 5,000 lux 30 min",delayed chromophore regeneration after photobleach in a dose-dependent manner
same,inhibition of 11-cis-retinal regeneration after photobleaching compared with CU-239,"RPE65 [3]; mouse, in vivo",higher potency
same,retinyl ester levels in treated mice,"RPE65 [3]; mouse, in vivo",accumulate higher levels of retinyl esters
